Values joined by “and” are separate entries in the source; they are usually repeats but may differ in a detail not shown here. Equal entries are not always repeated. Structures can show the parent of a compound that is named as a salt. Where two headings read alike, the source gives them in different places.
Key:
[1] = target: T1, SARS CoV-2 M^pro (Severe acute respiratory syndrome coronavirus 2, UniProt P0DTD1); assay: nanoDSF thermal shift assay (TSA); assay type: binding; details: for △T: versus M^pro+DMSO; for Kd: x-intercept of linear regression of ΔTm on log10 of compound concentration, read-out: Kobs
T1 construct: The main protease (M^pro) is a part of the polyprotein chain, also named 3C-like protease; SUMO (cleaved yes); His; made in house; host or cells: Escherichia coli BL21(DE3)

[2] = target: T1, SARS CoV-2 M^pro; assay: biochemical; assay type: biochemical; details: for inhibition at 80 µM: read-out: Inhibition%(80μM)
[3] = target: T1, SARS CoV-2 M^pro; assay: Surface plasmon resonance (SPR) binding to biotinylated M^pro; details: for binding trend to M^pro: SPR, single concentration 200 μM
[4] = 0.02%(v/v) Triton X−100 in buffer

Compound	Tm of M^pro ([1]; compound 3.125 μM)	△T ([1]; compound 3.125 μM)	Tm of M^pro ([1]; compound 50 μM)	△T ([1]; compound 50 μM)	Tm of M^pro ([1]; compound 200 μM)	△T ([1]; compound 200 μM)	inhibition at 80 µM ([2]; 80 μM compound, first value column of Table S2)	inhibition at 80 µM ([2]; 80 μM compound, second value column of Table S2)	inhibition at 80 µM ([2]; 80 μM compound, third value column of Table S2)	Kd [1]	Inhibition%(80μM) [2]	IC50 ([2]; Without Triton X−100)	inhibition at 80 µM [2]	binding trend to M^pro [3]	IC50 [2, 4]	Kd ([3]; SPR multi-cycle mode, steady-state affinity, PBST, 7% DMSO)
O=c1cc(-c2ccccc2)oc2cc(O)c(O)c(O)c12 [baicalein, Baicalein, reference compound]	55.2 °C	0.3 °C	56.6 °C	1.7 °C	57.0 °C	2.1 °C	99.9%	101%	98.7%	–	–	–	–	–	–	–
CC(C)CCCC(C)C1CCC2C3CC=C4CC(OS(=O)(=O)O)CCC4(C)C3CCC12C (stereo not drawn) [cholesteryl sodium sulfate, Cholesteryl sodium sulfate]	55.0 °C	0.1 °C	54.1 °C	-0.8 °C	48.9 °C	-6.0 °C	–	–	–	7600 nM	100.30% and 100.48%	2740 ± 234 nM	100%	–	–	–
COc1cc2ccc(=O)oc2c(O)c1O [fraxetin, Fraxetin]	–	–	–	–	–	–	–	–	–	–	97.85% and 96.97%	2490 ± 178 nM	96.8%	no binding trends	1300 ± 208 nM	–
CCCCCC/C=C\CCCCCCCc1cccc(O)c1C(=O)O [ginkgolic acid C15:1, Ginkgolic Acid C15:1]	–	–	–	–	–	–	–	–	–	–	107.06%	9350 ± 531 nM	104%	–	–	227000 nM
CC(=O)OCCc1ccc(O)c(O)c1 [hydroxytyrosol acetate, Hydroxytyrosol Acetate]	–	–	–	–	–	–	–	–	–	–	103.09% and 102.91%	3850 ± 576 nM	103%	no binding trends	3780 ± 453 nM	–
Cc1c(=O)c(=O)c2c3c[nH]c4c(C)c(=O)c(=O)c(c5c[nH]c1c52)c43 [melanin, Melanin]	55.0 °C	0.1 °C	54.9 °C	0.0 °C	54.4 °C	-0.5 °C	–	–	–	11600 nM	96.84% and 96.92%	7370 ± 368 nM	95.8%	–	–	–
COc1cc(C(=S)N2CCOCC2)ccc1O [vanitiolide, Vanitiolide]	–	–	–	–	–	–	–	–	–	–	99.16% and 98.95%	2840 ± 225 nM	99.1%	no binding trends	1420 ± 76 nM	–
COc1cc(O)c2c(c1)oc(=O)c1c3cc(O)c(O)cc3oc21 [wedelolactone, Wedelolactone]	55.2 °C	0.3 °C	55.8 °C	0.9 °C	56.1 °C	1.2 °C	–	–	–	977 nM	101.88% and 102.36%	1000 ± 238 nM	102%	–	2510 ± 276 nM	–
CC(C)=CC[C@H](OC(=O)C=C(C)C)C1=CC(=O)c2c(O)ccc(O)c2C1=O [β,β–dimethylacrylalkannin, β,β-Dimethylacrylalkannin]	–	–	57.7 °C	2.8 °C	58.3 °C	3.4 °C	–	–	–	1900 nM	99.09% and 97.96%	2730 ± 308 nM	100%	–	2890 ± 185 nM	–
Tubuloside A	–	–	–	–	–	–	–	–	–	–	87.62% and 90.37% and 86.87%	–	–	–	–	–

Reference: paper PMC10222270, “Natural Product-Based Screening for Lead Compounds Targeting SARS CoV-2 M^pro” (Pharmaceuticals, 2023)
